Results from US20260284014A1, “3,5-DIAMINOTRIAZOLE DERIVATIVES AND USES THEREOF FOR TREATING OCULAR DISEASES” (CENTRE NATIONAL DE LA RECHERCHE SCIENTIFIQUE, priority 2023, published 2026).
“Also recorded” adds a separate entry of the source.

Key:
ROS = ROS labeling by cytometry after H2O2; format: cell-based; settings: Homo sapiens, ARPE-19; for inhibition at 1 µM: 1 μM compound then 200 μM H2O2 for 2 h, read-out: C. ROS inhibition 1 μM - ARPE-19 cells; for inhibition at 5 µM: 5 μM compound then 200 μM H2O2 for 2 h, read-out: B. ROS inhibition 5 μM - ARPE-19 cells
Procedure: ARPE-19 cells were treated with MCK349 30 minutes then with 200 μM H2O2 for 2 h. 10 μM DCF-DA (2′,7′-Dichlorofluorescein diacetate) were added on cell media for 30 min. Cells were rinsed then detached (trypsin) and resuspended in PBS 0.5% BSA and 2 mM EDTA. The cells are analyzed by cytometry (ROS labeled with DCFDA-FITC).
(§1) All compounds were evaluated in different experiments. Results are represented as the mean of three independent experiments. A. ARPE-19 cells were treated with dose response of compound for 48 h. Values are reported as IC50 measured with the XTT assay. B and C. ARPE-19 cells were treated with 5 μM (B) or 1 μM (C) compound then with 200 μM H2O2 for 2 h. ROS were analyzed by cytometry. […] As illustrated in FIG. 1A. D. ARPE-19 cells were treated with 2.5 μM compound for 48 h and the level of CXCL1 mRNA was evaluated by qPCR. […] As illustrated in FIG. 1B. E. TIME cells were pre-treated with 2.5 μM compound for 1 h then stimulated with 100 ng/ml CXCL8 for 15 min p-ERK levels were analyzed by immunoblotting. HSP90 served as loading control. […] As illustrated in FIG. 1C.

ARPE-19 cells = test: Cell viability (XTT assay); format: cell-based; settings: Homo sapiens, 48 h, read-out: A. Safety IC50 on ARPE-19 cells
Procedure: ARPE-19 cells were incubated in a 96-well plate with different effectors for 48 hours. Fifty microliters of sodium 3′-[1-phenylaminocarbonyl)-3,4-tetrazolium]-bis(4-methoxy-6-nitro) benzene sulfonic acid hydrate (XTT) reagent was added to each well. The test is based on the cleavage of the yellow tetrazolium salt XTT to form an orange formazan dye by metabolically active cells. This bio-reduction occurs in viable cells only and is associated with NAD(P)H production through glycolysis. Therefore, the amount of formazan dye measured at 490 nm, correlates directly with the number of metabolically active cells reflecting cell proliferation, viability, and cytotoxicity. Each assay was performed in quadruplicate.
as §1

ERK activation (p-ERK) = test: p-ERK immunoblotting after CXCL8 stimulation; format: cell-based; settings: 2.5 μM compound 1 h then 100 ng/ml CXCL8 for 15 min; read-out: E. p-ERK inhibition - TIME
Procedure: Cells were lysed in buffer containing 3% SDS, 10% glycerol and 0.825 mM Na2HPO4. 30 to 50 μg of proteins separated on 10% SDS-PAGE, transferred onto a PVDF membrane and then exposed to the appropriate antibodies. Proteins were visualized with the ECL system using horseradish peroxidase-conjugated anti-rabbit or anti-mouse antibodies.
as §1

[1] = test system: ocular (retinal) neo-angiogenesis; test: Hypoxia-induced retinal neo-angiogenesis in zebrafish; format: in vivo; settings: hypoxia 5% oxygen 72 h, 0.25, 0.5, or 1 μM
Procedure: All animal experiments were approved by the Experimental Animal Ethical Committee. Transgenic zebrafish embryos (fli: EGFP, blood vessels marked in GFP) were raised at 28° C. under standard experimental conditions. Zebrafish embryos at the age of 24 hpf were incubated in aquarium water containing 0.2 mmol/L 1-phenyl-2-thio-urea (PTU, Sigma). At 48-hpf, zebrafish embryos were placed for 72 h in normoxia (Nx) or hypoxia 5% oxygen […], in the presence of treatment. Retinal neo-angiogenesis was analyzed by fluorescent confocal microscope and quantified by ImageJ.

| Structure (SMILES) | inhibition at 1 µM (ROS) [%] | inhibition at 5 µM (ROS) [%] | IC50 (ARPE-19 cells) [µM] | inhibition at 2.5 µM (ERK activation (p-ERK)) [%] | ocular (retinal) neo-angiogenesis in zebrafish [1] |
| --- | --- | --- | --- | --- | --- |
| CC(C)c1ccc(Cn2nc(Nc3ccccc3)nc2N)cc1 [MCK263, 1-(4-isopropylbenzyl)-N^3-phenyl-1H-1,2,4-triazole-3,5-diamine] | ≥ 50 | ≥ 50 | > 25 | ≥ 50 | inhibit ocular (retinal) neo-angiogenesis; also recorded: inhibit ocular neoangiogenesis |
| Nc1nc(Nc2ccccc2)n(Cc2cccc(C(F)(F)F)c2)n1 [MCK338, N^5-phenyl-1-(3-(trifluoromethyl)benzyl)-1H-1,2,4-triazole-3,5-diamine] | ≥ 50 | ≥ 50 | > 25 | < 50 |  |
| Nc1nc(Nc2ccccc2)n(Cc2c(F)cccc2F)n1 [MCK257, 1-(2,6-difluorobenzyl)-N^5-phenyl-1H-1,2,4-triazole-3,5-diamine] | ≥ 50 | ≥ 50 | > 25 | ≥ 50 |  |
| Nc1nc(Nc2ccccn2)nn1Cc1ccc([N+](=O)[O-])cc1 [MCK290, 1-(4-nitrobenzyl)-N^3-(pyridin-2-yl)-1H-1,2,4-triazole-3,5-diamine] | ≥ 50 | ≥ 50 | > 25 | ≥ 50 |  |
| Nc1nc(Nc2ccccn2)nn1Cc1cc(F)cc(F)c1 [MCK283, 1-(3,5-difluorobenzyl)-N^3-(pyridin-2-yl)-1H-1,2,4-triazole-3,5-diamine] | < 50 | < 50 | > 25 | ≥ 50 |  |
| Nc1nc(Nc2ccccn2)nn1Cc1ccc(F)cc1F [MCK284, 1-(2,4-difluorobenzyl)-N^3-(pyridin-2-yl)-1H-1,2,4-triazole-3,5-diamine] | < 50 | < 50 | > 25 | ≥ 50 |  |
| Nc1nc(Nc2ccccc2)nn1Cc1cccc([N+](=O)[O-])c1 [MCK275] | ≥ 50 | ≥ 50 | > 25 | < 50 |  |
| N#Cc1ccc(Cn2nc(Nc3ccccn3)nc2N)cc1 [MCK281, 4-((5-amino-3-(pyridin-2-ylamino)-1H-1,2,4-triazol-1-yl)methyl)benzonitrile] | < 50 | < 50 | > 25 | ≥ 50 |  |
| Nc1nc(Nc2ccc(Cl)cc2)nn1Cc1cccc(Br)c1 [MCK344, 1-(3-bromobenzyl)-N^3-(4-chlorophenyl)-1H-1,2,4-triazole-3,5-diamine] | ≥ 50 | ≥ 50 | > 25 | ≥ 50 | inhibit ocular (retinal) neo-angiogenesis; also recorded: inhibit ocular neoangiogenesis |
| COc1ccc(Nc2nc(N)n(Cc3cccc(Br)c3)n2)cc1 [MCK340, 1-(3-bromobenzyl)-N^3-(4-methoxyphenyl)-1H-1,2,4-triazole-3,5-diamine] | < 50 | < 50 | > 25 | < 50 |  |
| COc1cccc(Cn2nc(N)nc2Nc2ccccc2)c1 [MCK260, 1-(3-methoxybenzyl)-N^5-phenyl-1H-1,2,4-triazole-3,5-diamine] | ≥ 50 | ≥ 50 | > 25 | ≥ 50 |  |
| Nc1nc(Nc2ccccc2)nn1Cc1cccc(C(F)(F)F)c1 [MCK273, N^3-phenyl-1-(3-(trifluoromethyl)benzyl)-1H-1,2,4-triazole-3,5-diamine] | ≥ 50 | ≥ 50 | > 25 | ≥ 50 |  |
| Cc1ccc(Cn2nc(Nc3ccccc3)nc2N)cc1 [MCK271, 1-(4-methylbenzyl)-N^3-phenyl-1H-1,2,4-triazole-3,5-diamine] | ≥ 50 | ≥ 50 | > 25 | ≥ 50 |  |
| COC(=O)c1ccc(Nc2nc(N)nn2Cc2cccc(Br)c2)cc1 [MCK347, methyl-4-((3-amino-1-(3-bromobenzyl)-1H-1,2,4-triazol-5-yl)amino)benzoate] | < 50 | < 50 | > 25 | ≥ 50 |  |
| Nc1nc(Nc2ccc(Br)cc2)n(Cc2cccc(Br)c2)n1 [MCK345, 1-(3-bromobenzyl)-N^5-(4-bromophenyl)-1H-1,2,4-triazole-3,5-diamine] | ≥ 50 | ≥ 50 | > 25 | ≥ 50 |  |
| CC(C)c1ccc(Cn2nc(Nc3ccc(Cl)c(Cl)c3)nc2N)cc1 [MCK350, N^3-(3,4-dichlorophenyl)-1-(4-isopropylbenzyl)-1H-1,2,4-triazole-3,5-diamine] | ≥ 50 | ≥ 50 | > 25 | ≥ 50 |  |
| Nc1nc(Nc2ccccn2)nn1Cc1c(Cl)cccc1Cl [MCK278, 1-(2,6-dichlorobenzyl)-N^3-(pyridin-2-yl)-1H-1,2,4-triazole-3,5-diamine] | < 50 | < 50 | > 25 | ≥ 50 |  |
| Nc1nc(Nc2ccccc2)nn1Cc1ccccc1 [MCK249, 1-benzyl-N^3-phenyl-1H-1,2,4-triazole-3,5-diamine] | < 50 | ≥ 50 | > 25 | < 50 |  |
| Cc1ccccc1Cn1nc(Nc2ccccn2)nc1N [MCK269, 1-(2-methylbenzyl)-N^3-(pyridin-2-yl)-1H-1,2,4-triazole-3,5-diamine] | ≥ 50 | ≥ 50 | > 25 | ≥ 50 |  |
